Active and inactive are the calls of the source.
Experiments:
[1] = target: T1, Ectonucleoside triphosphate diphosphohydrolase 8 (Homo sapiens) (UniProt Q5MY95); test: Inhibition of human NTPdase-8 expressed in COS7 cell membranes at 100 uM using ATP as substrate preincubated for 3 mins followed by susbtrate addition and measured after 10 mins by malachite green dye based method
T1 sequence (whole entry): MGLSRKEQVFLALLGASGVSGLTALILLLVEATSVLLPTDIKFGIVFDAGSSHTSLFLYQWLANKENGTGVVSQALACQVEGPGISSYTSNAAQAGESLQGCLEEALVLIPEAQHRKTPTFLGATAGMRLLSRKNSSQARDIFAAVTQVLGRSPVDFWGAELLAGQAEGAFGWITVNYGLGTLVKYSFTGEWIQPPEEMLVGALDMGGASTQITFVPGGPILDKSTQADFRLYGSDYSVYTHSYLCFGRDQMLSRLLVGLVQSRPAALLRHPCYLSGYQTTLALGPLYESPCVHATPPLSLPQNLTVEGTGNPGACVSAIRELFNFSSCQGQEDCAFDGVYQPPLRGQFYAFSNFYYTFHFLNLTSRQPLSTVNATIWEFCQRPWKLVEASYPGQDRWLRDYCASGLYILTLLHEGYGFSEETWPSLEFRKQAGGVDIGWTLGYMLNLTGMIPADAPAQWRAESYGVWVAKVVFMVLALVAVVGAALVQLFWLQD

[2] = target: P2Y purinoceptor 4 (Homo sapiens) (UniProt P51582); test: Agonist activity at human P2Y4 receptor expressed in AD293 cells assessed as inositol-1-phosphate accumulation at 0.1 to 100 uM; assay type: functional, cell-based
[3] = target: P2Y purinoceptor 6 (Homo sapiens) (UniProt Q15077); test: Antagonist activity at human P2Y6 receptor expressed in AD293 cells assessed as inhibition of UDP-induced inositol-1-phosphate accumulation at 0.1 to 100 uM; assay type: functional, cell-based
[4] = target: P2Y purinoceptor 4 (Homo sapiens) (UniProt P51582); test: Antagonist activity at human P2Y4 receptor expressed in AD293 cells assessed as inhibition of UTP-induced inositol-1-phosphate accumulation at 0.1 to 100 uM; assay type: functional, cell-based
[5] = target: T2, Ectonucleoside triphosphate diphosphohydrolase 1 (Homo sapiens) (UniProt P49961); test: Inhibition of human NTPdase-1 expressed in COS7 cell membranes at 100 uM using ATP as substrate preincubated for 3 mins followed by susbtrate addition and measured after 10 mins by malachite green dye based method
T2 sequence (whole entry): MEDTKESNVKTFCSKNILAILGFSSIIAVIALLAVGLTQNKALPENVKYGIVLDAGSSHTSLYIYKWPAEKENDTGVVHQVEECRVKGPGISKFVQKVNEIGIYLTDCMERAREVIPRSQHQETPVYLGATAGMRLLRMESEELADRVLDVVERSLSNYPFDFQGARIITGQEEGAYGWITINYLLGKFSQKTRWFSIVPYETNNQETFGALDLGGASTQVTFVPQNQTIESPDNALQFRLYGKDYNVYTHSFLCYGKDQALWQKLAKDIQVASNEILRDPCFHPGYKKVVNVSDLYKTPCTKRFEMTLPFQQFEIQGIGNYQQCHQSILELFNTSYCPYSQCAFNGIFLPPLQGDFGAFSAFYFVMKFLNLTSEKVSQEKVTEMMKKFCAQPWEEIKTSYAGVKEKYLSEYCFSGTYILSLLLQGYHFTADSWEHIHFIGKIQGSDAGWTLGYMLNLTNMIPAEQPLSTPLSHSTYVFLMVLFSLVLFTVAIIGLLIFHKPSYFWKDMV

[6] = target: T3, Ectonucleoside triphosphate diphosphohydrolase 3 (Homo sapiens) (UniProt O75355); test: Inhibition of human NTPdase-3 expressed in COS7 cell membranes at 100 uM using ATP as substrate preincubated for 3 mins followed by susbtrate addition and measured after 10 mins by malachite green dye based method
T3 sequence (whole entry): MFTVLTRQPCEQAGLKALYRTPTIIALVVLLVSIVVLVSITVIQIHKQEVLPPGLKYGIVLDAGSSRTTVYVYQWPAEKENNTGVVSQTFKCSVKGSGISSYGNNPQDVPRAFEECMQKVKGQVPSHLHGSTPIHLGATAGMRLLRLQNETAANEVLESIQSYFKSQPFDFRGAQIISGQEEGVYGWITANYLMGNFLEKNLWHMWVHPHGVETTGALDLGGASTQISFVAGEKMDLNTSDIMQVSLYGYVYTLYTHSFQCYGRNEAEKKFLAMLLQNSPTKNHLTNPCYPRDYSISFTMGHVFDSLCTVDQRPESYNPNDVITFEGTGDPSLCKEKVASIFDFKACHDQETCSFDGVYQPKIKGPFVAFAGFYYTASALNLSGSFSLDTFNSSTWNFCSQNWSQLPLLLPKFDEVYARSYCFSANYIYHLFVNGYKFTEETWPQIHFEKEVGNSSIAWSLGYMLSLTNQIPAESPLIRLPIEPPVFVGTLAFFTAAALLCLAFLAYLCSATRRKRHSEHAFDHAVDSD

[7] = target: T4, Ectonucleoside triphosphate diphosphohydrolase 2 (Homo sapiens) (UniProt Q9Y5L3); test: Inhibition of human NTPdase-2 expressed in COS7 cell membranes at 100 uM using ATP as substrate preincubated for 3 mins followed by susbtrate addition and measured after 10 mins by malachite green dye based method
T4 sequence (whole entry): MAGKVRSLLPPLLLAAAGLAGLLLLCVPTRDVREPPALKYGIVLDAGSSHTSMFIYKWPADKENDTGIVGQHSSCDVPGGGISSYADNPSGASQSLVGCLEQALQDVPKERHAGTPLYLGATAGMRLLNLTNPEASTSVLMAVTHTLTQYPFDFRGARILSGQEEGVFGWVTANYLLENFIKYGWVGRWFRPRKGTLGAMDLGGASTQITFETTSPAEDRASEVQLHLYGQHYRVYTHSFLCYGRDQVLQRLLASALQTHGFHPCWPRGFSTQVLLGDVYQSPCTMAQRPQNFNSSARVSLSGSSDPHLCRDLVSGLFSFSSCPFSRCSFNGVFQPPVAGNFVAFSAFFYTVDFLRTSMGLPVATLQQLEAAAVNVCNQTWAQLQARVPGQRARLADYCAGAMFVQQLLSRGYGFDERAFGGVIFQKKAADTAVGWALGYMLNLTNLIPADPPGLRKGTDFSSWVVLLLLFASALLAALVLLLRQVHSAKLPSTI

Sequence of P2Y purinoceptor 4 (Homo sapiens) (P51582 whole entry): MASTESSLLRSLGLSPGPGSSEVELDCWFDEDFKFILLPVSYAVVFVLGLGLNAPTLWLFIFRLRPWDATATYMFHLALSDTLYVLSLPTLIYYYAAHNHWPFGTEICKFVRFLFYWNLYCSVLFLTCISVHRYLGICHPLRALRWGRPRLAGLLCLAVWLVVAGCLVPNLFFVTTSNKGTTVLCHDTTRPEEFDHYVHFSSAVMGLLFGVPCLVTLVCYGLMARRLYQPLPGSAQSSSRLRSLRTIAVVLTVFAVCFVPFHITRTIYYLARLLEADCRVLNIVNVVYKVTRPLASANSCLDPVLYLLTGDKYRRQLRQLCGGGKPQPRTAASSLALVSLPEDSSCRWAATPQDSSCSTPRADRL
Sequence of P2Y purinoceptor 6 (Homo sapiens) (Q15077 whole entry): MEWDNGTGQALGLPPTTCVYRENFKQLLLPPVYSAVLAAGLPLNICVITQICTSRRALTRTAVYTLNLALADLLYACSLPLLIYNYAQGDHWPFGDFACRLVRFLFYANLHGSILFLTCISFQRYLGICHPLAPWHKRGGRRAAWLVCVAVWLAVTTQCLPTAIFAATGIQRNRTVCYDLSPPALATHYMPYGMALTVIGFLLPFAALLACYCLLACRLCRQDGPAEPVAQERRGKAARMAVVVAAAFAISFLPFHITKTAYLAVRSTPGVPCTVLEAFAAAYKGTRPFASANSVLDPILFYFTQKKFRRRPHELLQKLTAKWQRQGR

SMILES | Inhibition call (active/not active) [1] | Activity [2] | inhibition [3] | inhibition [4] | inhibition call at 100 uM (active/not active) [5] | inhibition [6] | inhibition [7]
O=c1ccn(COCCOP(=S)(S)OP(=O)(O)C(Cl)(Cl)P(=O)(O)O)c(=O)[nH]1 (configuration not stated) | Active | inactive | inactive | inactive | Active | Active | Active
O=c1ccn(COCCOP(=O)(O)CP(=O)(O)O)c(=O)[nH]1 | Active | inactive | inactive | inactive | Active | Active | Active
O=c1ccn(COCCO[PH](=O)O)c(=O)[nH]1 | inactive | inactive | inactive | inactive | inactive | inactive | inactive
O=c1ccn(COCCOP(=O)(O)O)c(=O)[nH]1 | inactive | inactive | inactive | inactive | inactive | inactive | inactive
O=c1ccn(COCCOP(=O)(O)C(Cl)(Cl)P(=O)(O)O)c(=O)[nH]1 | Active | inactive | inactive | inactive | Active | Active | Active
O=c1ccn(COCCOP(=S)(S)OP(=O)(O)CP(=O)(O)O)c(=O)[nH]1 (configuration not stated) | Active | inactive | inactive | inactive | Active | Active | Active
